The first test concerns HEK293-STF3A cells. Kind of test: STF3A assay (luciferase reporter). Conditions: 1 day of treatment. It counts as cell-based, Human. From the text: HEK293-STF cell line was modified from Human embryonic kidney cell line HEK293 transfected with the STF reporter. HEK293-STF3A cell line was further modified from HEK293-STF cell line to express Wnt3A. This cell line was used to identify compounds that regulate either early or late signaling components of the Wnt pathway. These two cell lines were obtained from David Virshup's laboratory, Duke-NUS. L-Wnt3A (ATCC, #CRL-2647) cell line was used for providing Wnt3A conditioned media. The three cell lines were grown in DMEM with 10% FBS incubated in 37° C. with 5% CO2.
2×10^4 HEK293-STF3A cells in 75 μl culture media were seeded in each well of white 96 well plates (Greiner #655098) and incubated overnight at 37° C. 25 μl serially diluted compound was added to the cells to give final concentration of 50 μM to 1.5 nM. After 1 day of treatment, 100 μl of Steady-Glo Luciferase Assay reagent (#E2520, Promega) was added to each well and incubated for 10 minutes at room temperature. Luminescence was measured using Tecan Safire2 plate reader.
As for “4-(2-methyl-6,7-dihydropyrazolo[1,5-a]pyrimidin-4(5H)-yl)-N-(4-(2-methylthiazol-4-yl)phenyl)-4-oxobutanamide [Compound 32]”, the IC50 was less than 0.1 µM.

The test is the same for the next values; noted with them: Homo sapiens, 24 h, 1 day of treatment.
The compound `COc1cc2n(n1)CCCN2C(=O)CCC(=O)Nc1cc(-c2cccc(Cl)c2)no1` [Compound 135, N-(3-(3-chlorophenyl)isoxazol-5-yl)-4-(2-methoxy-6,7-dihydropyrazolo[1,5-a]pyrimidin-4(5H)-yl)-4-oxobutanamide] yielded an IC50 of more than 10 µM. Same read-out and setting: with `Cc1cncc(-c2ccc(NC(=O)CCC(=O)N3CC(C)Cn4nc(C)cc43)nc2)c1` (stereo not shown) [Compound 142, 4-(2,6-dimethyl-6,7-dihydropyrazolo[1,5-a]pyrimidin-4(5H)-yl)-N-(5′-methyl-[3,3′-bipyridin]-6-yl)-4-oxobutanamide] the figure was less than 0.1 µM. The same measure, in the same setting: with `Cc1cc2n(n1)CCCN2C(=O)CCC(=O)Nc1cnc(-c2ccccc2)c(F)c1` [Compound 156, N-(5-fluoro-6-phenylpyridin-3-yl)-4-(2-methyl-6,7-dihydropyrazolo[1,5-a]pyrimidin-4(5H)-yl)-4-oxobutanamide] the figure was less than 0.1 µM. The compound `Cc1cc2n(n1)CCCN2C(=O)CC(C)C(=O)Nc1ccc(-c2ccccc2)nn1` (stereo not shown) [Compound 146, 2-methyl-4-(2-methyl-6,7-dihydropyrazolo[1,5-a]pyrimidin-4(5H)-yl)-4-oxo-N-(6-phenylpyridazin-3-yl)butanamide] showed an IC50 of less than 0.1 µM.

As for `Cc1cc2n(n1)CCCN2C(=O)CCC(=O)Nc1ccc(-c2cccc(N(C)C)c2)cc1` [Compound 72, N-(3′-(dimethylamino)-[1,1′-biphenyl]-4-yl)-4-(2-methyl-6,7-dihydropyrazolo[1,5-a]pyrimidin-4(5H)-yl)-4-oxobutanamide], the half-inhibitory concentration (IC50) was more than 10 µM. In turn, `CC(=O)N1CCN(c2ccc(NC(=O)CCC(=O)N3CCCn4nc(C)cc43)cc2)CC1` [Compound 78, N-(4-(4-acetylpiperazin-1-yl)phenyl)-4-(2-methyl-6,7-dihydropyrazolo[1,5-a]pyrimidin-4(5H)-yl)-4-oxobutanamide] showed an IC50 of more than 10 µM.

Compound `Cc1cc2n(n1)CCCN2C(=O)CCC(=O)Nc1cc(-c2cccc(C(F)(F)F)c2)no1` [Compound 13, 4-{2-methyl-5H,6H,7H-pyrazolo[1,5-a]pyrimidin-4-yl}-4-oxo-N-{3-[3-(trifluoromethyl)phenyl]-1,2-oxazol-5-yl}butanamide] registered an IC50 of more than 10 µM. Still for that read-out and setting: with `Cc1cc(NC(=O)CCC(=O)N2CCCn3nc(C)cc32)on1` [Compound 1, 4-(2-methyl-6,7-dihydropyrazolo[1,5-a]pyrimidin-4(5H)-yl)-N-(3-methylisoxazol-5-yl)-4-oxobutanamide] the figure was more than 10 µM; with `Cc1cc2n(n1)CCCN2C(=O)CC(C)C(=O)Nc1cc(-c2cccc(Cl)c2)no1` (stereo not shown) [Compound 159, N-(3-(3-chlorophenyl)isoxazol-5-yl)-2-methyl-4-(2-methyl-6,7-dihydropyrazolo[1,5-a]pyrimidin-4(5H)-yl)-4-oxobutanamide], less than 5 µM; with `Cc1cc2n(n1)CCCN2C(=O)CCC(=O)Nc1cc(C)c(-c2cccnc2)cn1` [Compound 119, N-(4-methyl-3,3′-bipyridin-6-yl)-4-(2-methyl-6,7-dihydropyrazolo[1,5-a]pyrimidin-4(5H)-yl)-4-oxobutanamide], less than 5 µM. On the same count and under the same terms, with `Cc1cc2n(n1)CCCN2C(=O)CCC(=O)Nc1ccc(-c2ccccc2N)cc1` [Compound 69, N-(2′-amino-[1,1′-biphenyl]-4-yl)-4-(2-methyl-6,7-dihydropyrazolo[1,5-a]pyrimidin-4(5H)-yl)-4-oxobutanamide] the figure was less than 1 µM.

As for `Cc1cc2n(n1)CCCN2C(=O)CCC(=O)Nc1ccc(-c2ccc(F)cn2)cn1` [Compound 94, N-(5-fluoro-2,3′-bipyridin-6′-yl)-4-(2-methyl-6,7-dihydropyrazolo[1,5-a]pyrimidin-4(5H)-yl)-4-oxobutanamide], the IC50 is less than 0.1 µM. On the same count and under the same terms, under `Cc1cc2n(n1)CCCN2C(=O)CCC(=O)Nc1cc(-c2cc(Cl)ccn2)no1` [Compound 16, N-(3-(4-chloropyridin-2-yl)isoxazol-5-yl)-4-(2-methyl-6,7-dihydropyrazolo[1,5-a]pyrimidin-4(5H)-yl)-4-oxobutanamide] stands more than 10 µM; under `Cc1cc2n(n1)CCCN2C(=O)CCC(=O)Nc1ccc(-c2cncc(F)c2)cn1` [Compound 115, N-(5′-fluoro-[3,3′-bipyridin]-6-yl)-4-(2-methyl-6,7-dihydropyrazolo[1,5-a]pyrimidin-4(5H)-yl)-4-oxobutanamide], less than 0.1 µM; under `COc1ccccc1-c1ccc(NC(=O)CCC(=O)N2CCCn3nc(C)cc32)cc1` [Compound 61, N-(2′-methoxy-[1,1′-biphenyl]-4-yl)-4-(2-methyl-6,7-dihydropyrazolo[1,5-a]pyrimidin-4(5H)-yl)-4-oxobutanamide], more than 10 µM.

On to `Cc1cc2n(n1)CCCN2C(=O)CCC(=O)Nc1ccc(-c2csc(C)n2)cc1` [Compound 28, 4-(2-methyl-6,7-dihydropyrazolo[1,5-a]pyrimidin-4(5H)-yl)-N-(4-(2-methylthiazol-4-yl)phenyl)-4-oxobutanamide], for which the half-maximal inhibitory concentration (IC50) was less than 0.1 µM.

Turning to `Cc1cc2n(n1)CCCN2C(=O)CCC(=O)Nc1oncc1-c1ccccc1` [Compound 4, 4-(2-methyl-6,7-dihydropyrazolo[1,5-a]pyrimidin-4(5H)-yl)-4-oxo-N-(4-phenylisoxazol-5-yl)butanamide], the IC50 was more than 10 µM. On the same count and under the same terms, under `Cc1cc2n(n1)CCCN2C(=O)CCC(=O)Nc1ccc(C2CCCCC2)cc1` [Compound 75, N-(4-cyclohexylphenyl)-4-(2-methyl-6,7-dihydropyrazolo[1,5-a]pyrimidin-4(5H)-yl)-4-oxobutanamide] stands more than 10 µM. On the same count and under the same terms, with `Cc1cc2n(n1)CCCN2C(=O)CCC(=O)Nc1ccc(-c2cccnc2)cc1` [Compound 35, 4-(2-methyl-6,7-dihydropyrazolo[1,5-a]pyrimidin-4(5H)-yl)-4-oxo-N-(4-(pyridin-3-yl)phenyl)butanamide] the figure was less than 0.1 µM. The same measure, in the same setting: under `Cc1cc2n(n1)CCCN2C(=O)CC(C)C(=O)Nc1ccc(-c2cccnc2)cn1` (stereo not shown) [Compound 147, N-([3,3′-bipyridin]-6-yl)-2-methyl-4-(2-methyl-6,7-dihydropyrazolo[1,5-a]pyrimidin-4(5H)-yl)-4-oxobutanamide] stands less than 0.1 µM; under `Cc1cc2n(n1)CCN2C(=O)CCC(=O)Nc1cc(-c2cccc(Cl)c2)no1` [Compound 138, N-(3-(3-chlorophenyl)isoxazol-5-yl)-4-(6-methyl-2,3-dihydro-1H-imidazo[1,2-b]pyrazol-1-yl)-4-oxobutanamide], more than 10 µM; under `COC(=O)c1cc2n(n1)CCCN2C(=O)CCC(=O)Nc1cc(-c2cccc(Cl)c2)no1` [Compound 136, methyl 4-(4-(3-(3-chlorophenyl)isoxazol-5-ylamino)-4-oxobutanoyl)-4,5,6,7-tetrahydropyrazolo[1,5-a]pyrimidine-2-carboxylate], more than 10 µM. For the compound `Cc1cc2n(n1)CCCN2C(=O)CCC(=O)Nc1cnc(-c2ccccc2)c(C)c1` [Compound 86, 4-(2-methyl-6,7-dihydropyrazolo[1,5-a]pyrimidin-4(5H)-yl)-N-(5-methyl-6-phenylpyridin-3-yl)-4-oxobutanamide], the IC50 was less than 5 µM. Still for that read-out and setting: with `Cc1cc2n(n1)CCCN2C(=O)CCC(=O)Nc1ccc(-c2cccc(Cl)c2)nn1` [Compound 97, N-(6-(3-chlorophenyl)pyridazin-3-yl)-4-(2-methyl-6,7-dihydropyrazolo[1,5-a]pyrimidin-4(5H)-yl)-4-oxobutanamide] the figure was less than 0.1 µM. The same measure, in the same setting: with `Cc1cc2n(n1)CCCN2C(=O)CCC(=O)Nc1cc(-c2cccc(Cl)c2)nn1C` [Compound 21, N-(3-(3-chlorophenyl)-1-methyl-1H-pyrazol-5-yl)-4-(2-methyl-6,7-dihydropyrazolo[1,5-a]pyrimidin-4(5H)-yl)-4-oxobutanamide] the figure was more than 10 µM. As to `Cc1cnc(-c2ccc(NC(=O)CCC(=O)N3CCCn4nc(C)cc43)nc2)cn1` [Compound 149, 4-(2-methyl-6,7-dihydropyrazolo[1,5-a]pyrimidin-4(5H)-yl)-N-(5-(5-methylpyrazin-2-yl)pyridin-2-yl)-4-oxobutanamide], the IC50 is less than 0.1 µM. Take `Cc1cncc(-c2ccc(NC(=O)CCC(=O)N3CCCn4nc(C)cc43)nn2)c1` [Compound 104, 4-(2-methyl-6,7-dihydropyrazolo[1,5-a]pyrimidin-4(5H)-yl)-N-(6-(5-methylpyridin-3-yl)pyridazin-3-yl)-4-oxobutanamide]: the IC50 is less than 0.1 µM. Same read-out and setting: with `Cc1cc2n(n1)CCCN2C(=O)CCC(=O)Nc1ccc(-c2ccc(F)cc2)cc1` [Compound 66, N-(4′-fluorobiphenyl-4-yl)-4-(2-methyl-6,7-dihydropyrazolo[1,5-a]pyrimidin-4(5H)-yl)-4-oxobutanamide] the figure was less than 1 µM; with `Cc1cc2n(n1)CCCN2C(=O)CCC(=O)Nc1cc(-c2cccc(Br)c2)no1` [Compound 9, N-[3-(3-bromophenyl)-1,2-oxazol-5-yl]-4-{2-methyl-5H,6H,7H-pyrazolo[1,5-a]pyrimidin-4-yl}-4-oxobutanamide], less than 1 µM. Same read-out and setting: under `Cc1cc2n(n1)CCCN2C(=O)CCC(=O)Nc1ccc(-c2ccc(Cl)cc2)nn1` [Compound 100, N-[6-(4-chlorophenyl)pyridazin-3-yl]-4-{2-methyl-5H,6H,7H-pyrazolo[1,5-a]pyrimidin-4-yl}-4-oxobutanamide] stands less than 0.1 µM.

(Values after patent US10189842B2 (Agency for Science, Technology and Research, priority 2013, dated 2019).)
